Measured values from patent US12286437B2, “Cardiac sarcomere inhibitors” (Cytokinetics, Inc., priority 2021, dated 2025).

Assays:
[1] = Rat single dose pharmacokinetics; assay type: in vivo, Sprague Dawley rats; conditions: male, Sprague Dawley, plasma, IV; for Vd: read-out: Vss
Description: Male Sprague Dawley rats were obtained from Zhejiang Vital River Laboratory Animal Technology Co., Ltd. The animals in IV group had free access to water and food. The animals in PO group were fasted overnight before dosing and provided with food 2 hours post dosing. The IV dose solution was prepared in 10% DMA/50% PG/40% HPβCD solution (40% w/v aqueous HPβCD) at a concentration of 1 mg/mL. The oral dosing suspension was prepared by suspending Test Article in 0.5% HPMC/0.1% Tween 80 in water at a concentration 0.2 mg/mL. Concentrations of IV and PO doses were measured at the end of the study. Pharmacokinetic parameters were calculated using the nominal dose values if the measured values were within 20% of the nominal values. Three rats were dosed IV via a bolus injection via caudal vein. Three rats per dose group were dosed by oral gavage. Blood samples were collected from the jugular vein cannula at predose, 5 (IV only), 15, 30 minutes, and 1, 2, 4, 6, and 24 hours post-dose. Blood volumes were replaced with an equal amount of sterile 0.9% saline. Blood samples were centrifuged and the collected plasma was stored at −80° C. for subsequent analysis. Plasma samples were analyzed for Test Article concentrations using a LC/MS/MS method. Briefly, a 50 μL aliquot of each plasma sample was mixed with 100 μL of acetonitrile that contained an internal standard. The mixture was vortexed and centrifuged. Ten (10) […] of the resulting solution was injected onto a reverse-phase C18 column and the resultant peaks detected on a LC/MS/MS equipped with a turbo ionspray ionization source. Sample concentrations below the limit of quantification (BLQ) were treated as zero for pharmacokinetic calculations. Pharmacokinetic parameters were estimated from individual animals using noncompartmental analysis of the concentration-time data (Phoenix WinNonLin software, version 64; Pharsight, Mountain View, CA). The elimination rate constant (k) was calculated as the absolute value of the slope of the linear regression of logarithm (log) of the concentration versus time for the last three data points of the concentration-time profiles. Apparent elimination half-life (t1/2) values were calculated as ln(2)/k. Area under the concentration-time curve (AUC) values were estimated using linear trapezoidal method. AUCt values were calculated from the dosing time to the last measurable concentration. AUC∞ values were calculated as the sum of the corresponding AUCt and the ratio of the last detectable concentration divided by k (AUCt-∞). Plasma clearance (CL) was calculated from Dose/AUC∞. Mean resident time (MRT) was estimated by moment analysis. Volume of distribution at steady state (Vss) was calculated from MRT∞×CL. Maximum concentration (Cmax) and time to reach Cmax (tmax) were recorded as observed. Bioavailability was calculated from the ratio of dose normalized AUC∞,po of individual rats/mean dAUC∞,iv×100% where dAUC was the dose normalized AUC value. Compounds tested were prepared in accordance with the synthetic procedures described herein.

CYP2B6 = molecular target: T1, CYP2B6 (Homo sapiens, UniProt P20813); experiment: Time-dependent inhibition of CYP2B6 in human liver microsomes; assay type: in vitro ADME; conditions: for (% Activity NADPH T0)/(% Activity NADPH T30): fold change; for activity at 30 min, 25 µM / activity at 0 min, 25 µM / activity at 30 min, 50 µM / activity at 0 min, 50 µM: pooled human liver microsomes, human liver microsomes; for activity at 30 min, 25 µM / activity at 30 min, 50 µM: after 30 minutes incubation, read-out: % Activity NADPH T30; for activity at 0 min, 25 µM / activity at 0 min, 50 µM: time zero, read-out: % Activity NADPH T0
T1 construct: Pooled human microsomes and selective CYP probe substrates were used; from tissue; host or cells: pooled human liver microsomes
T1 sequence (P20813 1-491): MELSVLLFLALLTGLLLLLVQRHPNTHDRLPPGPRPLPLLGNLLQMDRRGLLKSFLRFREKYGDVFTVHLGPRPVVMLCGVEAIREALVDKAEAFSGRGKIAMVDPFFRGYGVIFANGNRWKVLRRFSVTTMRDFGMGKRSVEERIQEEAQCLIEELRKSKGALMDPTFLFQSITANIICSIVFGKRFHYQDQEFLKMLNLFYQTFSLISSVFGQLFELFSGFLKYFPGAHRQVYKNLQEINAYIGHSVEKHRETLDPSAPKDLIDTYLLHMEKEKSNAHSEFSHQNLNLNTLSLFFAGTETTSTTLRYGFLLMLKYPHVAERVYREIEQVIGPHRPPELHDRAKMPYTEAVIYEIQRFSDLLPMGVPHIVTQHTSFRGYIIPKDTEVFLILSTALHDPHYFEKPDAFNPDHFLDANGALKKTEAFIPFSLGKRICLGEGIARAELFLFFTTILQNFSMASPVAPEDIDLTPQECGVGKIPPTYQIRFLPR
Description: (§1) An assessment of the time-dependent Inhibitory Potential of the test compounds against Principal Human Cytochrome P450 Isozymes using Human Liver Microsomes was also carried out using standard methods (Grimm et al, Drug Metab. Dispos., July; 37(7):1355-70. doi: 10.1124/dmd.109.026716, 2009). Pooled human microsomes and selective CYP probe substrates were used for in vitro assessment of test compounds at 25 and 50 μM as time-dependent inhibitors of […] human hepatic cytochrome P450 isozymes (CYP1A2, 2B6, 2C9, 2C19, 2D6, and 3A4). LC-MS/MS was used to quantify metabolite formation. The inhibition of each P450 enzyme in human liver microsomes was measured as the percentage decrease in the activity of marker metabolite formation as measured by LC-MS/MS compared to non-inhibited controls (=100% activity) at time zero and after 30 minutes incubation. The occurrence of any time dependent inhibition was then expressed as the fold change in enzyme activity at time zero relative to the activity after 30 minutes incubation.

CYP2D6 = molecular target: T2, CYP2D6 (Homo sapiens, UniProt P10635); experiment: Time-dependent inhibition of CYP2D6 in human liver microsomes; assay type: in vitro ADME; conditions: for (% Activity NADPH T0)/(% Activity NADPH T30): fold change; for activity at 30 min, 25 µM / activity at 0 min, 25 µM / activity at 30 min, 50 µM / activity at 0 min, 50 µM: pooled human liver microsomes, human liver microsomes; for activity at 30 min, 25 µM / activity at 30 min, 50 µM: after 30 minutes incubation, read-out: % Activity NADPH T30; for activity at 0 min, 25 µM / activity at 0 min, 50 µM: time zero, read-out: % Activity NADPH T0
T2 construct: Pooled human microsomes and selective CYP probe substrates were used; from tissue; host or cells: pooled human liver microsomes
T2 sequence (P10635 whole entry): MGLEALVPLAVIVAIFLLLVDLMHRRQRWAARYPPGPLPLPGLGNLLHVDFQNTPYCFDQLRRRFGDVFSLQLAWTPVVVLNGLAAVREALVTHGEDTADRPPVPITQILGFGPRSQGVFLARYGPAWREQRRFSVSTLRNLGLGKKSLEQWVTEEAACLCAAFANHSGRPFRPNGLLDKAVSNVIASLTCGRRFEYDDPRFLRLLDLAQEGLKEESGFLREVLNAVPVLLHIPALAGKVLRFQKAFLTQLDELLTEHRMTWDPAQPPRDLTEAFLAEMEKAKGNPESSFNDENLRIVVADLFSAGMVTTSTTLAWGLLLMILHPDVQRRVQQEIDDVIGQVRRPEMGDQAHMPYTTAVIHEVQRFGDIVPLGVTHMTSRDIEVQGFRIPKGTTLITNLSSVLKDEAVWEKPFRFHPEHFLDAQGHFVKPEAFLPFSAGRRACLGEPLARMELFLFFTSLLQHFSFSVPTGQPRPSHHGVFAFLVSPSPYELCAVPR
Description: as §1

CYP2C8 = molecular target: T3, CYP2C8 (Homo sapiens, UniProt P10632); experiment: Time-dependent inhibition of CYP2C8 in human liver microsomes; assay type: in vitro ADME; conditions: for (% Activity NADPH T0)/(% Activity NADPH T30): fold change; for activity at 30 min, 25 µM / activity at 0 min, 25 µM / activity at 30 min, 50 µM / activity at 0 min, 50 µM: pooled human liver microsomes, human liver microsomes; for activity at 30 min, 25 µM / activity at 30 min, 50 µM: after 30 minutes incubation, read-out: % Activity NADPH T30; for activity at 0 min, 25 µM / activity at 0 min, 50 µM: time zero, read-out: % Activity NADPH T0
T3 construct: Pooled human microsomes and selective CYP probe substrates were used; from tissue; host or cells: pooled human liver microsomes
T3 sequence (P10632 1-490): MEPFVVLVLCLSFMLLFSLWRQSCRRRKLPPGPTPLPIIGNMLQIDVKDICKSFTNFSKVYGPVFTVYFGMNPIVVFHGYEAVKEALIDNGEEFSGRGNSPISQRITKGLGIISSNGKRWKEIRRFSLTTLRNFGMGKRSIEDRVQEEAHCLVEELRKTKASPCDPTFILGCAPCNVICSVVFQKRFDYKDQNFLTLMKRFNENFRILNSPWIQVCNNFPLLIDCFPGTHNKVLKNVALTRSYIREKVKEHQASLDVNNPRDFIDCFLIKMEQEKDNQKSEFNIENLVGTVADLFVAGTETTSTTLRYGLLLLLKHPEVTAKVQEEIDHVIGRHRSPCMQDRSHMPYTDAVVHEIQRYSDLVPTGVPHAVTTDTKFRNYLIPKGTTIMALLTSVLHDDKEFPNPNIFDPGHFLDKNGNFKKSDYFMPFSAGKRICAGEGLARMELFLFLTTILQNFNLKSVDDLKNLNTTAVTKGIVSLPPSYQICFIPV
Description: as §1

Compound | clearance [1] [mL/min/kg] | half-life [1] [h] | Vd [1] [L/kg] | (% Activity NADPH T0)/(% Activity NADPH T30) (CYP2B6; CYP2B6, 25 μM) | (% Activity NADPH T0)/(% Activity NADPH T30) (CYP2B6; CYP2B6, 50 μM) | activity at 30 min, 25 µM (CYP2B6; CYP2B6, 25 μM) [%] | activity at 0 min, 25 µM (CYP2B6; CYP2B6, 25 μM) [%] | activity at 30 min, 50 µM (CYP2B6; CYP2B6, 50 μM) [%] | activity at 0 min, 50 µM (CYP2B6; CYP2B6, 50 μM) [%] | (% Activity NADPH T0)/(% Activity NADPH T30) (CYP2D6; CYP2D6, 25 μM) | (% Activity NADPH T0)/(% Activity NADPH T30) (CYP2D6; CYP2D6, 50 μM) | activity at 30 min, 25 µM (CYP2D6; CYP2D6, 25 μM) [%] | activity at 0 min, 25 µM (CYP2D6; CYP2D6, 25 μM) [%] | activity at 30 min, 50 µM (CYP2D6; CYP2D6, 50 μM) [%] | activity at 0 min, 50 µM (CYP2D6; CYP2D6, 50 μM) [%] | (% Activity NADPH T0)/(% Activity NADPH T30) (CYP2C8; CYP2C8, 25 μM) | (% Activity NADPH T0)/(% Activity NADPH T30) (CYP2C8; CYP2C8, 50 μM) | activity at 30 min, 25 µM (CYP2C8; CYP2C8, 25 μM) [%] | activity at 0 min, 25 µM (CYP2C8; CYP2C8, 25 μM) [%] | activity at 30 min, 50 µM (CYP2C8; CYP2C8, 50 μM) [%] | also measured
Cc1cc(CN2C(=O)CN([C@H]3CC[C@H](C)CC3)C(=O)C23CN(C(N)=O)C3)ccc1F [Compound 6, 5-(4-fluoro-3-methylbenzyl)-8-((1r,4r)-4-methylcyclohexyl)-6,9-dioxo-2,5,8-triazaspiro[3.5]nonane-2-carboxamide] | 76.6 | 2 | 10.1 | 1.1 | 1.1 | 83 | 95 | 77 | 87 | 1.3 | 1.2 | 87 | 112 | 92 | 107 | 0.9 | 1.1 | 88 | 79 | 80 | (% Activity NADPH T0)/(% Activity NADPH T30) (CYP2D6; CYP2D6, 50 μM, listed as compound 6): no change in activity; activity at 0 min, 50 µM (CYP2C8; CYP2C8, 50 μM): 86%
C[C@H]1CC[C@H](N2CC(=O)N(Cc3ccc(F)c(F)c3)C3(CN(C(N)=O)C3)C2=O)CC1 [Compound 5, 5-(3,4-difluorobenzyl)-8-((1r,4r)-4-methylcyclohexyl)-6,9-dioxo-2,5,8-triazaspiro[3.5]nonane-2-carboxamide] | 71.1 | 3.04 | 13.7 | 1.0 | 1.1 | 78 | 79 | 76 | 83 | 1.1 | 1.1 | 89 | 98 | 84 | 94 | 1.0 | 2.0 | 88 | 87 | 53 | activity at 0 min, 50 µM (CYP2C8; CYP2C8, 50 μM): 104%
